Experimental data published in patent publication US20080200454A1, “CARBON-LINKED TETRAHYDRO-PYRAZOLO-PYRIDINE MODULATORS OF CATHEPSIN S” (priority 2007, published 2008).

Target: Recombinant human cathepsin S (CatS) (Homo sapiens, UniProt P25774)
Assay: Recombinant human cathepsin S (CatS) inhibition assay, fluorogenic substrate Z-Valine-Valine-Arginine-AMC;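 further: Baculovirus-expressed CatS in pH 5.0 sodium acetate buffer with DTT and NaCl, fluorescence read each minute over 20 min, inhibition derived from rate slope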
Settings: not given

Chain of Recombinant human cathepsin S (CatS) (P25774 115-331): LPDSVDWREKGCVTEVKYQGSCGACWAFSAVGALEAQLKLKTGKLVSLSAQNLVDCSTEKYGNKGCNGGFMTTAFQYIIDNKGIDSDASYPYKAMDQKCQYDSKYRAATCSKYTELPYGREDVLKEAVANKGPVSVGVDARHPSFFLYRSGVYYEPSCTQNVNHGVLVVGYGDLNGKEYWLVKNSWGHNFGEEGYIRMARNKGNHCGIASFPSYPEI

Row | IC50 [nM] | Compound
1 | 660 | CS(=O)(=O)N1CCc2c(c(-c3ccc(Cl)c(CCCNC4CCCC4)c3)nn2CCCN2CCC(N3CCCC3=O)CC2)C1 [Example 108, 1-[1-(3-{3-[4-Chloro-3-(3-cyclopentylamino-propyl)-phenyl]-5-methanesulfonyl-4,5,6,7-tetrahydro-pyrazolo[4,3-c]pyridin-1-yl}-propyl)-piperidin-4-yl]-pyrrolidin-2-one]
2 | 350 | CC1COCCN1C[C@H](O)Cn1nc(-c2ccc(Cl)c(C#Cc3ccc(CNCc4ccc(Cl)cc4)cc3)c2)c2c1CCN(S(C)(=O)=O)C2 (stereo in doubt) [Example 266, (2S)-1-[3-(4-Chloro-3-{4-[(4-chloro-benzylamino)-methyl]-phenylethynyl}-phenyl)-5-methanesulfonyl-4,5,6,7-tetrahydro-pyrazolo[4,3-c]pyridin-1-yl]-3-((3S)-3-methyl-morpholin-4-yl)-propan-2-ol]
3 | 10 | CC(C)(C)OC(=O)N1CCC(C2CCN(C[C@H](O)Cn3nc(-c4ccc(Cl)c(C#Cc5ccc(Cl)cc5)c4)c4c3CCN(C(N)=O)C4)CC2)CC1 [Example 237, 1,1-Dimethylethyl 1′-{(2S)-3-[5-(aminocarbonyl)-3-{4-chloro-3-[(4-chlorophenyl)ethynyl]phenyl}-4,5,6,7-tetrahydro-1H-pyrazolo[4,3-c]pyridin-1-yl]-2-hydroxypropyl}-4,4′-bipiperidine-1-carboxylate]
4 | 40 | NC(=O)N1CCc2c(c(-c3ccc(Cl)c(C#Cc4ccc(Cl)c(C(=O)NCCN5CCOCC5)c4)c3)nn2CCCN2CCSCC2)C1 [Example 585, 3-[4-Chloro-3-({4-chloro-3-[(2-morpholin-4-ylethyl)carbamoyl]phenyl}ethynyl)phenyl]-1-(3-thiomorpholin-4-ylpropyl)-1,4,6,7-tetrahydro-5H-pyrazolo[4,3-c]pyridine-5-carboxamide]
5 | 20 | CS(=O)(=O)N1CCc2c(c(-c3ccc(Cl)c(C#Cc4ccc(CNCc5ccc(Cl)cc5)cc4)c3)nn2CCCN2CCN(c3ccccn3)CC2)C1 [Example 179, 1-{4-[(2-Chloro-5-{5-(methylsulfonyl)-1-[3-(4-pyridin-2-ylpiperazin-1-yl)propyl]-4,5,6,7-tetrahydro-1H-pyrazolo[4,3-c]pyridin-3-yl}phenyl)ethynyl]phenyl}-N-[(4-chlorophenyl)methyl]methanamine]
6 | 40 | NC(=O)N1CCc2c(c(-c3ccc(Cl)c(C#Cc4ccc(CNCc5ccc(Cl)cc5)cc4)c3)nn2CCCN2CCN(c3cccc[n+]3[O-])CC2)C1 [Example 454, 3-(4-Chloro-3-{[4-({[(4-chlorophenyl)methyl]amino}methyl)phenyl]ethynyl}phenyl)-1-{3-[4-(1-oxidopyridin-2-yl)piperazin-1-yl]propyl}-1,4,6,7-tetrahydro-5H-pyrazolo[4,3-c]pyridine-5-carboxamide]
7 | 60 | CS(=O)(=O)N1CCc2c(c(-c3ccc(Cl)c(C#Cc4ccc5c(c4)CNCC5)c3)nn2CCCN2CCC(C(N)=O)CC2)C1 [Example 135, 1-(3-{3-[4-Chloro-3-(1,2,3,4-tetrahydro-isoquinolin-7-ylethynyl)-phenyl]-5-methanesulfonyl-4,5,6,7-tetrahydro-pyrazolo[4,3-c]pyridin-1-yl}-propyl)-piperidine-4-carboxylic acid amide]
8 | 3130 | COC(=O)C1NCCc2cc(C#Cc3cc(-c4nn(CCCN5CCOCC5)c5c4CN(S(C)(=O)=O)CC5)ccc3Cl)ccc21 (centres unmarked) [Example 208, Methyl 6-({2-chloro-5-[5-(methylsulfonyl)-1-(3-morpholin-4-ylpropyl)-4,5,6,7-tetrahydro-1H-pyrazolo[4,3-c]pyridin-3-yl]phenyl}ethynyl)-1,2,3,4-tetrahydroisoquinoline-1-carboxylate]
9 | 260 | CS(=O)(=O)N1CCc2c(c(-c3ccc(C(F)(F)F)c(C#Cc4ccc(Cl)cc4)c3)nn2CC(O)CN2CCOCC2)C1 (centres unmarked) [Example 122, 1-{3-[3-(4-Chloro-phenylethynyl)-4-trifluoromethyl-phenyl]-5-methanesulfonyl-4,5,6,7-tetrahydro-pyrazolo[4,3-c]pyridin-1-yl}-3-morpholin-4-yl-propan-2-ol]
10 | 210 | CS(=O)(=O)N1CCc2c(c(-c3ccc(Cl)c(C#Cc4ccc(CN[C@@H]5CCCc6ccccc65)cc4)c3)nn2CCCN2CCOCC2)C1 [Example 444, (1R)—N-{[4-({2-Chloro-5-[5-(methylsulfonyl)-1-(3-morpholin-4-ylpropyl)-4,5,6,7-tetrahydro-1H-pyrazolo[4,3-c]pyridin-3-yl]phenyl}ethynyl)phenyl]methyl}-1,2,3,4-tetrahydronaphthalen-1-amine]
11 | 7950 | CS(=O)(=O)N1CCc2c(c(-c3ccc(Cl)c(C#CCCCO)c3)nn2CCCN2CCOCC2)C1 [Example 46, 5-{2-Chloro-5-[5-methanesulfonyl-1-(3-morpholin-4-yl-propyl)-4,5,6,7-tetrahydro-1H-pyrazolo[4,3-c]pyridin-3-yl]-phenyl}-pent-4-yn-1-ol]

Row | Compound | IC50 [nM]
12 | CS(=O)(=O)N1CCc2c(c(-c3ccc(Cl)c(C#CCCO)c3)nn2CCCN2CCOCC2)C1 [Example 299, 4-{2-Chloro-5-[5-(methylsulfonyl)-1-(3-morpholin-4-ylpropyl)-4,5,6,7-tetrahydro-1H-pyrazolo[4,3-c]pyridin-3-yl]phenyl}but-3-yn-1-ol] | 4800

Same assay, conditions: CatS IC50

Row | Compound | IC50 [nM]
13 | CCN(CC)Cc1ccc(C#Cc2cc(-c3nn(CCCN4CCOCC4)c4c3CN(S(C)(=O)=O)CC4)ccc2Cl)cc1 [Example 317, N-{[4-({2-Chloro-5-[5-(methylsulfonyl)-1-(3-morpholin-4-ylpropyl)-4,5,6,7-tetrahydro-1H-pyrazolo[4,3-c]pyridin-3-yl]phenyl}ethynyl)phenyl]methyl}-N-ethylethanamine] | 2710
14 | CS(=O)(=O)N1CCc2c(c(-c3ccc(Cl)c(C#Cc4ccc(CNCc5ccccc5)c(Cl)c4)c3)nn2CCCN2CCOCC2)C1 [Example 545, 1-[2-Chloro-4-({2-chloro-5-[5-(methylsulfonyl)-1-(3-morpholin-4-ylpropyl)-4,5,6,7-tetrahydro-1H-pyrazolo[4,3-c]pyridin-3-yl]phenyl}ethynyl)phenyl]-N-(phenylmethyl)methanamine] | 270
15 | CC(C)NCc1cc(C#Cc2cc(-c3nn(CCCN4CCOC[C@@H]4C)c4c3CN(C(=O)C(N)=O)CC4)ccc2Cl)ccc1Cl [Example 619, 2-(3-{4-Chloro-3-[(4-chloro-3-{[(1-methylethyl)amino]methyl}phenyl)ethynyl]phenyl}-1-{3-[(3S)-3-methylmorpholin-4-yl]propyl}-1,4,6,7-tetrahydro-5H-pyrazolo[4,3-c]pyridin-5-yl)-2-oxoacetamide] | 20
16 | C[C@H]1COCCN1CCCn1nc(-c2ccc(Cl)c(C#Cc3ccc(Cl)c(C(=O)N4CCNCC4)c3)c2)c2c1CCN(C(=O)C(N)=O)C2 [Example 574, 2-[3-(4-Chloro-3-{[4-chloro-3-(piperazin-1-ylcarbonyl)phenyl]ethynyl}phenyl)-1-{3-[(3S)-3-methylmorpholin-4-yl]propyl}-1,4,6,7-tetrahydro-5H-pyrazolo[4,3-c]pyridin-5-yl]-2-oxoacetamide] | 140
17 | NC(=O)N1CCc2c(c(-c3ccc(Cl)c(C#Cc4ccc(CN5CCC(N6C[C@H](O)CC6=O)CC5)cc4)c3)nn2CCCN2CCSCC2)C1 [Example 549, 3-(4-Chloro-3-{[4-({4-[(4R)-4-hydroxy-2-oxopyrrolidin-1-yl]piperidin-1-yl}methyl)phenyl]ethynyl}phenyl)-1-(3-thiomorpholin-4-ylpropyl)-1,4,6,7-tetrahydro-5H-pyrazolo[4,3-c]pyridine-5-carboxamide] | 1010
18 | CS(=O)(=O)N1CCc2c(c(-c3ccc(Cl)c(C#Cc4cccc(C=O)c4)c3)nn2CCCN2CCOCC2)C1 [Example 184, 3-({2-Chloro-5-[5-(methylsulfonyl)-1-(3-morpholin-4-ylpropyl)-4,5,6,7-tetrahydro-1H-pyrazolo[4,3-c]pyridin-3-yl]phenyl}ethynyl)benzaldehyde] | 320
19 | CS(=O)(=O)N1CCc2c(c(-c3ccc(Cl)c(C#Cc4ccc(CNCc5ccc(Cl)cc5)cc4)c3)nn2CCCN2C[C@@H]3C[C@H]2CN3)C1 [Example 493, 1-[4-({2-Chloro-5-[1-{3-[(1S,4S)-2,5-diazabicyclo[2.2.1]hept-2-yl]propyl}-5-(methylsulfonyl)-4,5,6,7-tetrahydro-1H-pyrazolo[4,3-c]pyridin-3-yl]phenyl}ethynyl)phenyl]-N-[(4-chlorophenyl)methyl]methanamine] | 300
20 | CC(C)CNCc1ccc(C#Cc2cc(-c3nn(CCCN4CCOCC4)c4c3CN(S(C)(=O)=O)CC4)ccc2Cl)cc1 [Example 318, N-{[4-({2-Chloro-5-[5-(methylsulfonyl)-1-(3-morpholin-4-ylpropyl)-4,5,6,7-tetrahydro-1H-pyrazolo[4,3-c]pyridin-3-yl]phenyl}ethynyl)phenyl]methyl}-2-methylpropan-1-amine] | 1150
21 | NC(=O)C(=O)N1CCc2c(c(-c3ccc(Cl)c(C#Cc4ccc(Cl)c(C(=O)N5CCNCC5)c4)c3)nn2CCCN2CCSCC2)C1 [Example 568, 2-[3-(4-Chloro-3-{[4-chloro-3-(piperazin-1-ylcarbonyl)phenyl]ethynyl}phenyl)-1-(3-thiomorpholin-4-ylpropyl)-1,4,6,7-tetrahydro-5H-pyrazolo[4,3-c]pyridin-5-yl]-2-oxoacetamide] | 140
22 | CS(=O)(=O)N1CCc2c(c(-c3ccc(Cl)c(C#Cc4ccc(CNCc5ccc(Cl)cc5)cc4)c3)nn2CCCN2CCN(c3ccncc3)CC2)C1 [Example 416, 1-{4-[(2-Chloro-5-{5-(methylsulfonyl)-1-[3-(4-pyridin-4-ylpiperazin-1-yl)propyl]-4,5,6,7-tetrahydro-1H-pyrazolo[4,3-c]pyridin-3-yl}phenyl)ethynyl]phenyl}-N-[(4-chlorophenyl)methyl]methanamine] | 70
23 | CS(=O)(=O)N1CCc2c(c(-c3ccc(Cl)c(C#Cc4ccc(Cl)cc4)c3)nn2CCCN2CCOCC2)C1 [Example 28, 3-[4-Chloro-3-(4-chloro-phenylethynyl)-phenyl]-5-methanesulfonyl-1-(3-morpholin-4-yl-propyl)-4,5,6,7-tetrahydro-1H-pyrazolo[4,3-c]pyridine] | 200
